Results published in PubChem BioAssay (NCI).
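Cells were grown in 96-well plates and exposed to each compound for 48 hours at five concentrations; endpoints were interpolated linearly between bracketing concentrations, or set to the highest concentration if not reached. At the GI50, growth is halved. The concentration for full growth arrest is given as TGI.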

Key:
Assay in all cases: NCI anticancer screen, dose series, 48 h
786-0 renal = tested on: 786-0 renal
A498 renal = tested on: A498 renal
A549 NSCLC = tested on: A549 NSCLC
ACHN renal = tested on: ACHN renal
BT-549 breast = tested on: BT-549 breast
CAKI-1 renal = tested on: CAKI-1 renal
CCRF-CEM leukemia = tested on: CCRF-CEM leukemia
COLO 205 colon = tested on: COLO 205 colon
DU-145 prostate = tested on: DU-145 prostate
EKVX NSCLC = tested on: EKVX NSCLC
HCC-2998 colon = tested on: HCC-2998 colon
HCT-116 colon = tested on: HCT-116 colon
HCT-15 colon = tested on: HCT-15 colon
HL-60(TB) leukemia = tested on: HL-60(TB) leukemia
HOP-62 NSCLC = tested on: HOP-62 NSCLC
HOP-92 NSCLC = tested on: HOP-92 NSCLC
HS 578T breast = tested on: HS 578T breast
HT29 colon = tested on: HT29 colon
IGROV1 ovarian = tested on: IGROV1 ovarian
K-562 leukemia = tested on: K-562 leukemia
KM12 colon = tested on: KM12 colon
LOX IMVI melanoma = tested on: LOX IMVI melanoma
M14 melanoma = tested on: M14 melanoma
MALME-3M melanoma = tested on: MALME-3M melanoma
MCF7 breast = tested on: MCF7 breast
MDA-MB-231 breast = tested on: MDA-MB-231 breast
MDA-MB-435 = tested on: MDA-MB-435
MDA-MB-468 breast = tested on: MDA-MB-468 breast
MOLT-4 leukemia = tested on: MOLT-4 leukemia
NCI-H226 lung = tested on: NCI-H226 lung
NCI-H23 lung = tested on: NCI-H23 lung
NCI-H460 lung = tested on: NCI-H460 lung
NCI-H522 lung = tested on: NCI-H522 lung
OVCAR-3 ovarian = tested on: OVCAR-3 ovarian
OVCAR-4 ovarian = tested on: OVCAR-4 ovarian
OVCAR-5 ovarian = tested on: OVCAR-5 ovarian
OVCAR-8 ovarian = tested on: OVCAR-8 ovarian
PC-3 prostate = tested on: PC-3 prostate
RPMI-8226 leukemia = tested on: RPMI-8226 leukemia
RXF 393 renal = tested on: RXF 393 renal
SF-268 CNS = tested on: SF-268 CNS
SF-295 CNS = tested on: SF-295 CNS
SF-539 CNS = tested on: SF-539 CNS
SK-MEL-2 melanoma = tested on: SK-MEL-2 melanoma
SK-MEL-28 melanoma = tested on: SK-MEL-28 melanoma
SK-MEL-5 melanoma = tested on: SK-MEL-5 melanoma
SK-OV-3 ovarian = tested on: SK-OV-3 ovarian
SN12C renal = tested on: SN12C renal
SNB-19 CNS = tested on: SNB-19 CNS
SNB-75 CNS = tested on: SNB-75 CNS
SR leukemia = tested on: SR leukemia
SW-620 colon = tested on: SW-620 colon
T-47D breast = tested on: T-47D breast
TK-10 renal = tested on: TK-10 renal
U251 CNS = tested on: U251 CNS
UACC-257 melanoma = tested on: UACC-257 melanoma
UACC-62 melanoma = tested on: UACC-62 melanoma
UO-31 renal = tested on: UO-31 renal

With `COc1ccccc1NC(=O)c1ccc(NC(=O)CCl)s1` as the compound, how does the GI50 (786-0 renal) read?
The GI50 was 12.3 µM.

And the TGI (786-0 renal)?
The TGI was 26.1 µM.

What about the GI50 (A498 renal) of the same compound?
Its GI50 is 87.4 µM.

What about the TGI (A498 renal) of the same compound?
Its TGI is over 100 µM.

And the GI50 (A549 NSCLC)?
The GI50 was 14.7 µM.

And the TGI (A549 NSCLC)?
The TGI was 40 µM.

What about the GI50 (ACHN renal) of the same compound?
The GI50 was 10.5 µM.

And the TGI (ACHN renal)?
Its TGI is 24.5 µM.

What about the GI50 (BT-549 breast) of the same compound?
The GI50 was 12.2 µM.

And the TGI (BT-549 breast)?
Its TGI is 26.8 µM.

And the GI50 (CAKI-1 renal)?
Its GI50 is 12.8 µM.

What about the TGI (CAKI-1 renal) of the same compound?
Its TGI is 29 µM.

What about the GI50 (CCRF-CEM leukemia) of the same compound?
Its GI50 is 3.62 µM.

And the TGI (CCRF-CEM leukemia)?
Its TGI is 88.1 µM.

What about the GI50 (COLO 205 colon) of the same compound?
Its GI50 is 15.1 µM.

And the TGI (COLO 205 colon)?
Its TGI is 35.5 µM.

And the GI50 (DU-145 prostate)?
The GI50 was 24.7 µM.

And the TGI (DU-145 prostate)?
Its TGI is 85 µM.

What about the GI50 (EKVX NSCLC) of the same compound?
The GI50 was 18 µM.

What about the TGI (EKVX NSCLC) of the same compound?
The TGI was 67.7 µM.

And the GI50 (HCC-2998 colon)?
Its GI50 is 28.6 µM.

And the TGI (HCC-2998 colon)?
Its TGI is over 100 µM.

What about the GI50 (HCT-116 colon) of the same compound?
The GI50 was 5.52 µM.

What about the TGI (HCT-116 colon) of the same compound?
Its TGI is 30.5 µM.

What about the GI50 (HCT-15 colon) of the same compound?
Its GI50 is 4.29 µM.

What about the TGI (HCT-15 colon) of the same compound?
The TGI was 29 µM.

And the GI50 (HL-60(TB) leukemia)?
Its GI50 is 4.76 µM.

What about the TGI (HL-60(TB) leukemia) of the same compound?
The TGI was 35.6 µM.

What about the GI50 (HOP-62 NSCLC) of the same compound?
Its GI50 is 36.4 µM.

What about the TGI (HOP-62 NSCLC) of the same compound?
The TGI was over 100 µM.

And the GI50 (HOP-92 NSCLC)?
Its GI50 is 16.5 µM.

And the TGI (HOP-92 NSCLC)?
Its TGI is 34.7 µM.

And the GI50 (HS 578T breast)?
Its GI50 is 15.1 µM.

And the TGI (HS 578T breast)?
Its TGI is 54.4 µM.

And the GI50 (HT29 colon)?
Its GI50 is 8.76 µM.

What about the TGI (HT29 colon) of the same compound?
Its TGI is 22.9 µM.

What about the GI50 (IGROV1 ovarian) of the same compound?
The GI50 was 15.6 µM.

What about the TGI (IGROV1 ovarian) of the same compound?
The TGI was 34.9 µM.

What about the GI50 (K-562 leukemia) of the same compound?
Its GI50 is 2.65 µM.

And the TGI (K-562 leukemia)?
Its TGI is over 100 µM.

And the GI50 (KM12 colon)?
Its GI50 is 14.7 µM.

And the TGI (KM12 colon)?
The TGI was 38.8 µM.

What about the GI50 (LOX IMVI melanoma) of the same compound?
Its GI50 is 4.81 µM.

What about the TGI (LOX IMVI melanoma) of the same compound?
Its TGI is 18.5 µM.

And the GI50 (M14 melanoma)?
The GI50 was 13.1 µM.

And the TGI (M14 melanoma)?
The TGI was 28.7 µM.

And the GI50 (MALME-3M melanoma)?
Its GI50 is 15.1 µM.

What about the TGI (MALME-3M melanoma) of the same compound?
Its TGI is 30.5 µM.

And the GI50 (MCF7 breast)?
Its GI50 is 5.02 µM.

What about the TGI (MCF7 breast) of the same compound?
Its TGI is 44 µM.

And the GI50 (MDA-MB-231 breast)?
The GI50 was 15.2 µM.

What about the TGI (MDA-MB-231 breast) of the same compound?
The TGI was 33.7 µM.

And the GI50 (MDA-MB-435)?
Its GI50 is 15.7 µM.

What about the TGI (MDA-MB-435) of the same compound?
The TGI was 32.5 µM.

And the GI50 (MDA-MB-468 breast)?
Its GI50 is 12.4 µM.

And the TGI (MDA-MB-468 breast)?
Its TGI is 27.7 µM.

What about the GI50 (MOLT-4 leukemia) of the same compound?
The GI50 was 4.23 µM.

And the TGI (MOLT-4 leukemia)?
The TGI was 40.6 µM.

And the GI50 (NCI-H226 lung)?
Its GI50 is 14.6 µM.

What about the TGI (NCI-H226 lung) of the same compound?
Its TGI is 32.4 µM.

What about the GI50 (NCI-H23 lung) of the same compound?
The GI50 was 13.6 µM.

What about the TGI (NCI-H23 lung) of the same compound?
The TGI was 31.2 µM.

And the GI50 (NCI-H460 lung)?
The GI50 was 11 µM.

What about the TGI (NCI-H460 lung) of the same compound?
The TGI was 35.4 µM.

What about the GI50 (NCI-H522 lung) of the same compound?
The GI50 was 10.6 µM.

What about the TGI (NCI-H522 lung) of the same compound?
The TGI was 24 µM.

And the GI50 (OVCAR-3 ovarian)?
The GI50 was 13.6 µM.

And the TGI (OVCAR-3 ovarian)?
Its TGI is 29 µM.

And the GI50 (OVCAR-4 ovarian)?
The GI50 was 21 µM.

What about the TGI (OVCAR-4 ovarian) of the same compound?
The TGI was 68.7 µM.

And the GI50 (OVCAR-5 ovarian)?
Its GI50 is 23.6 µM.

And the TGI (OVCAR-5 ovarian)?
Its TGI is 49.2 µM.

And the GI50 (OVCAR-8 ovarian)?
Its GI50 is 12.7 µM.

And the TGI (OVCAR-8 ovarian)?
Its TGI is 33.8 µM.

What about the GI50 (PC-3 prostate) of the same compound?
The GI50 was 11.1 µM.

What about the TGI (PC-3 prostate) of the same compound?
The TGI was 28.4 µM.

What about the GI50 (RPMI-8226 leukemia) of the same compound?
The GI50 was 13.6 µM.

And the TGI (RPMI-8226 leukemia)?
The TGI was 38.6 µM.

And the GI50 (RXF 393 renal)?
The GI50 was 11.6 µM.

And the TGI (RXF 393 renal)?
Its TGI is 25.1 µM.

What about the GI50 (SF-268 CNS) of the same compound?
Its GI50 is 18.8 µM.

What about the TGI (SF-268 CNS) of the same compound?
The TGI was 64.2 µM.

What about the GI50 (SF-295 CNS) of the same compound?
Its GI50 is 25.9 µM.

What about the TGI (SF-295 CNS) of the same compound?
The TGI was over 100 µM.

What about the GI50 (SF-539 CNS) of the same compound?
The GI50 was 16.2 µM.

And the TGI (SF-539 CNS)?
The TGI was 30.8 µM.

What about the GI50 (SK-MEL-2 melanoma) of the same compound?
Its GI50 is 13.9 µM.

And the TGI (SK-MEL-2 melanoma)?
The TGI was 29.2 µM.

What about the GI50 (SK-MEL-28 melanoma) of the same compound?
The GI50 was 21.9 µM.

And the TGI (SK-MEL-28 melanoma)?
Its TGI is 54.1 µM.

What about the GI50 (SK-MEL-5 melanoma) of the same compound?
Its GI50 is 15.3 µM.

And the TGI (SK-MEL-5 melanoma)?
The TGI was 29.4 µM.

What about the GI50 (SK-OV-3 ovarian) of the same compound?
The GI50 was 29.5 µM.

What about the TGI (SK-OV-3 ovarian) of the same compound?
The TGI was 74.9 µM.

What about the GI50 (SN12C renal) of the same compound?
Its GI50 is 13.4 µM.

And the TGI (SN12C renal)?
The TGI was 36 µM.

What about the GI50 (SNB-19 CNS) of the same compound?
The GI50 was 32.4 µM.

And the TGI (SNB-19 CNS)?
The TGI was over 100 µM.

And the GI50 (SNB-75 CNS)?
Its GI50 is 11.5 µM.

And the TGI (SNB-75 CNS)?
Its TGI is 83.2 µM.

What about the GI50 (SR leukemia) of the same compound?
The GI50 was 3.11 µM.

And the TGI (SR leukemia)?
The TGI was over 100 µM.

And the GI50 (SW-620 colon)?
Its GI50 is 4.27 µM.

What about the TGI (SW-620 colon) of the same compound?
Its TGI is 21.7 µM.

And the GI50 (T-47D breast)?
The GI50 was 42.3 µM.

And the TGI (T-47D breast)?
Its TGI is over 100 µM.

What about the GI50 (TK-10 renal) of the same compound?
The GI50 was 20.4 µM.

And the TGI (TK-10 renal)?
Its TGI is 73.6 µM.

What about the GI50 (U251 CNS) of the same compound?
The GI50 was 13.9 µM.

And the TGI (U251 CNS)?
The TGI was 28.1 µM.

What about the GI50 (UACC-257 melanoma) of the same compound?
The GI50 was 24.3 µM.

What about the TGI (UACC-257 melanoma) of the same compound?
Its TGI is over 100 µM.

What about the GI50 (UACC-62 melanoma) of the same compound?
The GI50 was 16.1 µM.

What about the TGI (UACC-62 melanoma) of the same compound?
Its TGI is 31 µM.

What about the GI50 (UO-31 renal) of the same compound?
Its GI50 is 13.7 µM.

What about the TGI (UO-31 renal) of the same compound?
Its TGI is 27.3 µM.
